Test results reported in patent publication US11753408B2, “Compounds and method for blocking transmission of malarial parasite” (The United States of America, as represented by the …, priority 2016, dated 2023).
Where two headings read alike, the source gives them in different places.

Experiments:
[1] = system: Stage III-V gametocytes (blood stage P. falciparum parasites); assay: In vitro drug activity on gametocytes (AlamarBlue viability assay); format: cell-based, Plasmodium falciparum; conditions: read-out: Gametocyte EC50
Summary of the method: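 P. falciparum 3D7 stage III–V gametocytes (also HB3, Dd2), enriched by 50 mM N-acetylglucosamine and Percoll gradient, seeded at 20,000/well with compound for 72 h at 37° C, 5% CO2. AlamarBlue then added for 24 h; viability read as fluorescence (Ex 525, Em 598 nm).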

[2] = system: Asexual parasites of P. falciparum strain 3D7; assay: In vitro drug activity on asexual parasites (SYBR Green assay); format: cell-based, Plasmodium falciparum
Summary of the method: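 3D7 parasites at 0.5% parasitemia and 2% hematocrit were exposed to drugs (DMSO ≤0.5%) for 72 h under standard culture conditions, in duplicate. After freeze-thaw lysis, SYBR Green I lysis buffer was added for 30 min at room temperature, and fluorescence was read at 490/520 nm.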

Solubility at pH 7.4 = format: physicochemical
[3] = Microsomal stability (rat); format: in vitro ADME; conditions: rat microsomes
mTOR = mTOR (Homo sapiens, UniProt P42345); assay: mTOR activity (no method described); format: biochemical
PAMPA permeability = format: in vitro ADME
[4] = P. falciparum stage III-V gametocytes, 72 h incubation, AlamarBlue
[5] = P. falciparum 3D7 asexual parasites, 72 h, SYBR Green

Row | EC50 [2] | Sol @ pH 7.4 (Solubility at pH 7.4) | Microsomal Stability (rat) T1/2 [3] | mTOR (mTOR) | PAMPA Permeability (PAMPA permeability) | EC50 [2, 5] | Sol @ pH 7.4 (ug/mL) (Solubility at pH 7.4) | PAMPA Permeability (×10^6 cm/s) (PAMPA permeability) | Structure (SMILES) | EC50 [1] | EC50 [1, 4]
1 | 177 nM | 61.6 ug/mL | >30.0 min | 3776 nM | 459 ×10⁻⁶ cm/s |  |  |  | CN(C)Cc1ccc(-c2ccc3ncc4ccc(=O)n(-c5ccc(C(=O)N6CCOCC6)cc5)c4c3c2)cc1 [Compound 86] | 212 nM | 
2 | 24.4 nM | 2.6 ug/mL | >30.0 min | 241.1 nM | 33.1 ×10⁻⁶ cm/s |  |  |  | O=C(NC1CC1)c1ccc(-n2c(=O)ccc3cnc4ccc(-c5ccc(Cl)cc5)cc4c32)cc1 [Compound 87] | 139 nM | 
3 | 56.7 nM | 0.51 ug/mL |  | 1841 nM | 117 ×10⁻⁶ cm/s |  |  |  | Cc1cc(C(=O)NC2CC2)ccc1-n1c(=O)ccc2cnc3ccc(-c4ccc(Cl)cc4)cc3c21 [Compound 88] | 141 nM | 
4 | 221 nM |  | 5.4 min | 522.6 nM | 243 ×10⁻⁶ cm/s |  |  |  | Cc1cccc(-c2ccc3ncc4ccc(=O)n(-c5ccc(C(=O)N6CCOCC6)cc5)c4c3c2)c1 [Compound 121] | 443 nM | 
5 | 261 nM |  | 5.4 min | 1303 nM | 822 ×10⁻⁶ cm/s |  |  |  | O=C(c1ccc(-n2c(=O)ccc3cnc4ccc(-c5cccc(Cl)c5)cc4c32)cc1)N1CCOCC1 [Compound 122] | 371 nM | 
6 | 144 nM |  | 19.7 min | 1357 nM | 20.4 ×10⁻⁶ cm/s |  |  |  | N#Cc1cccc(-c2ccc3ncc4ccc(=O)n(-c5ccc(C(=O)N6CCOCC6)cc5)c4c3c2)c1 [Compound 124] | 349 nM | 
7 | 301 nM | 2.8 ug/mL |  | 631.5 nM | 204 ×10⁻⁶ cm/s |  |  |  | O=Cc1ccc(-c2ccc3ncc4ccc(=O)n(-c5ccc(C(=O)N6CCOCC6)cc5)c4c3c2)cc1 [Compound 169] | 630 nM | 
8 |  | >77.00 ug/mL |  | 100000 nM | 366 ×10⁻⁶ cm/s |  |  |  | CN(C)Cc1cccc(-c2ccc3ncc4ccc(=O)n(-c5ccc(C(=O)N6CCOCC6)cc5)c4c3c2)c1 [Compound 173] | 2530 nM | 
9 |  | <1 ug/mL | 21.5 min | 7201 nM | 1250 ×10⁻⁶ cm/s |  |  |  | COc1cc(C(=O)NC2CC2)ccc1-n1c(=O)ccc2cnc3ccc(-c4ccc(F)cc4)cc3c21 [Compound 188] | 602 nM | 
10 |  | >78 ug/mL | >30 min | 6514 nM | 212 ×10⁻⁶ cm/s |  |  |  | O=C(c1ccc(-n2c(=O)ccc3cnc4ccc(-c5ccc(CN6CCC6)cc5)cc4c32)cc1)N1CCOCC1 [Compound 189] | 358 nM | 
11 |  | 2.4 ug/mL | 26.7 min | 4337 nM | 606 ×10⁻⁶ cm/s |  |  |  | COc1cc(C(=O)NC2CC2)ccc1-n1c(=O)ccc2cnc3ccc(-c4ccc(Cl)cc4)cc3c21 [Compound 191] | 172 nM | 
12 |  | >81 ug/mL | >30 min | 8290 nM | 162 ×10⁻⁶ cm/s |  |  |  | COc1cc(C(=O)N2CCOCC2)ccc1-n1c(=O)ccc2cnc3ccc(-c4ccc(CN(C)C)cc4)cc3c21 [Compound 193] | 814 nM | 
13 |  | <1 ug/mL | 6.9 min | 100000 nM | 1080 ×10⁻⁶ cm/s |  |  |  | COc1cc(C(=O)N2CCOCC2)ccc1-n1c(=O)ccc2cnc3ccc(-c4ccc(F)cc4)cc3c21 [Compound 194] | 702 nM | 
14 |  | <1 ug/mL | 8.8 min | 781.4 nM | 148 ×10⁻⁶ cm/s |  |  |  | CCc1ccc(-c2ccc3ncc4ccc(=O)n(-c5ccc(C(=O)N6CCOCC6)cc5)c4c3c2)cc1 [Compound 195] | 276 nM | 
15 |  | >77 ug/mL | >30 min | 2384 nM | 3.5 ×10⁻⁶ cm/s |  |  |  | CC(C)(N)c1cccc(-c2ccc3ncc4ccc(=O)n(-c5ccc(C(=O)N6CCOCC6)cc5)c4c3c2)c1 [Compound 197] | 65100 nM | 
16 |  | 0.32 ug/mL |  | 150.5 nM | 141 ×10⁻⁶ cm/s |  |  |  | CC1CC1NC(=O)c1ccc(-n2c(=O)ccc3cnc4ccc(-c5ccc(N)nc5)cc4c32)cc1 (stereo not drawn) [Compound 338] | 65.9 nM | 
17 |  |  | >30 min |  |  | 472 nM | 45.3 ug/mL | 1.2 ×10^6 cm/s | O=C1NCc2cc(-n3c(=O)ccc4cnc5ccc(-c6ccc(CN7CCCC7)cc6)cc5c43)ccc21 [Compound 371] |  | 2470 nM
18 |  |  | >30 min |  |  | 540 nM | <1 ug/mL | <1 ×10^6 cm/s | O=C1NCc2cc(-n3c(=O)ccc4cnc5ccc(-c6ccc(CCN7CCOCC7)cc6)cc5c43)ccc21 [Compound 372] |  | 1050 nM
19 |  |  | >30 min |  |  | 350 nM | 3.3 ug/mL | <6.3 ×10^6 cm/s | NC1(c2ccc(-c3ccc4ncc5ccc(=O)n(-c6ccc7c(c6)CNC7=O)c5c4c3)cc2)CC1 [Compound 373] |  | 45.7 nM
20 |  |  | >30 min |  |  | 4180 nM | 52.5 ug/mL | <1.6 ×10^6 cm/s | CN(C)Cc1ccc(-c2ccc3ncc4ccc(=O)n(-c5ccc6c(c5)NC(=O)C6)c4c3c2)cc1 [Compound 374] |  | 12900 nM
21 |  |  | >30 min |  |  | 389 nM | 13.1 ug/mL | <1.1 ×10^6 cm/s | CN(C)CCc1ccc(-c2ccc3ncc4ccc(=O)n(-c5ccc6c(c5)CNC6=O)c4c3c2)cc1 [Compound 375] |  | 715 nM
22 |  |  | >30.0 min |  |  | 316 nM | 1.4 ug/mL | <4.1 ×10^6 cm/s | Nc1ccc(-c2ccc3ncc4ccc(=O)n(-c5ccc6c(c5)C(=O)NC6)c4c3c2)cn1 [Compound 387] |  | 1840 nM
23 |  |  | >30.0 min |  |  | 75.2 nM | 4.2 ug/mL | 25 ×10^6 cm/s | Nc1ccc(-c2ccc3ncc4ccc(=O)n(-c5ccc6c(c5)CN(C5CC5)C6=O)c4c3c2)cn1 [Compound 390] |  | 116 nM
24 |  |  | >30.00 min |  |  | 22 nM | 33.81 ug/mL | 133.39 ×10^6 cm/s | CN1C(=O)CCc2cc(-n3c(=O)ccc4cnc5ccc(-c6ccc(N)nc6)cc5c43)ccc21 [Compound 392] |  | 46.1 nM
25 |  |  | >30 min |  |  | 130 nM | <1 ug/mL | <1 ×10^6 cm/s | Nc1ccc(-c2ccc3ncc4ccc(=O)n(-c5ccc6c(c5)NC(=O)C6)c4c3c2)cn1 [Compound 394] |  | 438 nM
26 |  | <1 ug/mL |  | 319 nM | < 1 ×10⁻⁶ cm/s |  |  |  | Cn1c(=O)n(-c2ccc(N3CCN(CCO)CC3)c(C#N)c2)c2c3cc(-c4ccc(Cl)cc4)ccc3ncc21 [Compound 417] | 36.5 nM | 
